Molecules are shown by their SMILES. pIC50: −log10 of the molar value.

The test system of one series is SARS-CoV-2. Nature of the series: microbe, parasite or virus in culture. The series is classed as functional, organism-based, Chlorocebus sabaeus, Vero C1008. The settings on record: Severe acute respiratory syndrome coronavirus 2, Vero C1008, 48 h; read-out: IC50.
For `O=C1CC2(CCCC2)CC(=O)N1CCCCN1CCN(c2nsc3ccccc23)CC1` [TIOSPIRONE], the pIC50 is less than 4.00.

Regarding `c1ccc(C(c2ccccc2)N2CCN(CCCC3(c4ccccc4)OCCO3)CC2)cc1` [DOTARIZINE], the negative logarithm of the IC50 (pIC50) was 5.00.

Consider `CCN(CC)Cc1ccc2cc(COC(=O)Nc3ccc(C(=O)NO)cc3)ccc2c1` [GIVINOSTAT], for which the pIC50 was less than 4.00.

Regarding `COc1ccc2c(c1)N(C[C@H](C)CN(C)C)c1ccccc1S2` [LEVOMEPROMAZINE], the pIC50 was less than 4.30.

Take `C=CC(=O)Nc1cc(Nc2nccc(-c3cn(C)c4ccccc34)n2)c(OC)cc1N(C)CCN(C)C` [OSIMERTINIB]: the pIC50 was less than 4.00.

Take `COc1ccc2nc3c(c(N)c2c1)CCCC3`: the pIC50 is less than 4.60.

In the case of `CCC(=O)c1ccc2c(c1)N(CCCN1CCN(CCO)CC1)c1ccccc1S2` [CARPHENAZINE], the pIC50 is less than 4.00.

As to `C[C@H](Oc1cc(-c2cnn(C3CCNCC3)c2)cnc1N)c1c(Cl)ccc(F)c1Cl`, the pIC50 is roughly 5.35.

As for `CC(=O)O[C@H]1CC[C@@]2(C)C(=CC[C@@H]3[C@@H]2CC[C@]2(C)C(c4cccnc4)=CC[C@@H]32)C1` [ABIRATERONE ACETATE], the pIC50 is less than 4.60.

For the compound `CC(C)(C)c1ccc(CN2CCN(C(c3ccccc3)c3ccc(Cl)cc3)CC2)cc1` (stereo unspecified) [BUCLIZINE], the pIC50 was 4.69.

For the compound `CC(=O)c1ccc2c(c1)N(CCCN1CCC(CCO)CC1)c1ccccc1S2` [PIPERACETAZINE], the pIC50 was less than 4.90.

The series is the same for the next values; noted with them: Severe acute respiratory syndrome coronavirus 2, Vero C1008, 48 h; read-out: pIC50 (converted).
Take `O=C1CC2(CCCC2)CC(=O)N1CCCCN1CCN(c2nsc3ccccc23)CC1` [TIOSPIRONE]: the IC50 is greater than 100 µM.

Turning to `c1ccc(C(c2ccccc2)N2CCN(CCCC3(c4ccccc4)OCCO3)CC2)cc1` [DOTARIZINE], the IC50 is 10 µM.

In the case of `CCN(CC)Cc1ccc2cc(COC(=O)Nc3ccc(C(=O)NO)cc3)ccc2c1` [GIVINOSTAT], the IC50 was greater than 100 µM.

Consider `COc1ccc2c(c1)N(C[C@H](C)CN(C)C)c1ccccc1S2` [LEVOMEPROMAZINE], for which the IC50 was greater than 50.1 µM.

Turning to `C=CC(=O)Nc1cc(Nc2nccc(-c3cn(C)c4ccccc34)n2)c(OC)cc1N(C)CCN(C)C` [OSIMERTINIB], the IC50 is greater than 100 µM.

As to `COc1ccc2nc3c(c(N)c2c1)CCCC3`, the IC50 was greater than 25.1 µM.

Turning to `CCC(=O)c1ccc2c(c1)N(CCCN1CCN(CCO)CC1)c1ccccc1S2` [CARPHENAZINE], the IC50 is greater than 100 µM.

`C[C@H](Oc1cc(-c2cnn(C3CCNCC3)c2)cnc1N)c1c(Cl)ccc(F)c1Cl`: the IC50 is roughly 4.47 µM.

`CC(=O)O[C@H]1CC[C@@]2(C)C(=CC[C@@H]3[C@@H]2CC[C@]2(C)C(c4cccnc4)=CC[C@@H]32)C1` [ABIRATERONE ACETATE]: the IC50 is greater than 25.1 µM.

Regarding `CC(C)(C)c1ccc(CN2CCN(C(c3ccccc3)c3ccc(Cl)cc3)CC2)cc1` (stereo unspecified) [BUCLIZINE], the IC50 is 20.4 µM.

`CC(=O)c1ccc2c(c1)N(CCCN1CCC(CCO)CC1)c1ccccc1S2` [PIPERACETAZINE]: the IC50 was greater than 12.6 µM.

Tested on in a further series: not listed separately
Description: in vitro. The settings on record: chlorocebus sabaeus, Vero E6 (Vero C1008) cells, CC50.
For the compound `O=C1CC2(CCCC2)CC(=O)N1CCCCN1CCN(c2nsc3ccccc23)CC1` [TIOSPIRONE], the midpoint of cytotoxicity, the CC50 at 48 h, lay at 24.6 µM.

In turn, `c1ccc(C(c2ccccc2)N2CCN(CCCC3(c4ccccc4)OCCO3)CC2)cc1` [DOTARIZINE] had a CC50 at 48 h of 17.4 µM.

In turn, `CCN(CC)Cc1ccc2cc(COC(=O)Nc3ccc(C(=O)NO)cc3)ccc2c1` [GIVINOSTAT] gave a 50% cytotoxic concentration (CC50) at 48 h of 0.767 µM.

`COc1ccc2c(c1)N(C[C@H](C)CN(C)C)c1ccccc1S2` [LEVOMEPROMAZINE] had a CC50 at 48 h of 11.6 µM.

Consider `C=CC(=O)Nc1cc(Nc2nccc(-c3cn(C)c4ccccc34)n2)c(OC)cc1N(C)CCN(C)C` [OSIMERTINIB], for which half-maximal cytotoxicity (CC50 at 48 h) was put at 3.09 µM.

The compound `COc1ccc2nc3c(c(N)c2c1)CCCC3` showed a CC50 at 48 h of 47.9 µM.

Turning to `CCC(=O)c1ccc2c(c1)N(CCCN1CCN(CCO)CC1)c1ccccc1S2` [CARPHENAZINE], half-maximal cytotoxicity (CC50 at 48 h) was put at 6.31 µM.

In turn, `C[C@H](Oc1cc(-c2cnn(C3CCNCC3)c2)cnc1N)c1c(Cl)ccc(F)c1Cl` displayed a CC50 at 48 h of 4.42 µM.

In turn, `CC(=O)O[C@H]1CC[C@@]2(C)C(=CC[C@@H]3[C@@H]2CC[C@]2(C)C(c4cccnc4)=CC[C@@H]32)C1` [ABIRATERONE ACETATE] had a half-maximal cytotoxic concentration (CC50) at 48 h of 9.89 µM.

`CC(C)(C)c1ccc(CN2CCN(C(c3ccccc3)c3ccc(Cl)cc3)CC2)cc1` (stereo unspecified) [BUCLIZINE] registered a CC50 at 48 h of 81.3 µM.

Take `CC(=O)c1ccc2c(c1)N(CCCN1CCC(CCO)CC1)c1ccccc1S2` [PIPERACETAZINE]: the CC50 at 48 h came out at 12.2 µM.

Still in this series, the particulars now being: chlorocebus sabaeus, Vero E6 (Vero C1008) cells, pCC50.
With `O=C1CC2(CCCC2)CC(=O)N1CCCCN1CCN(c2nsc3ccccc23)CC1` [TIOSPIRONE], the CC50 at 48 h was 24.5 µM.

Consider `c1ccc(C(c2ccccc2)N2CCN(CCCC3(c4ccccc4)OCCO3)CC2)cc1` [DOTARIZINE], for which half-maximal cytotoxicity (CC50 at 48 h) was put at 17.4 µM.

For the compound `CCN(CC)Cc1ccc2cc(COC(=O)Nc3ccc(C(=O)NO)cc3)ccc2c1` [GIVINOSTAT], half-maximal cytotoxicity (CC50 at 48 h) was put at 0.759 µM.

The compound `COc1ccc2c(c1)N(C[C@H](C)CN(C)C)c1ccccc1S2` [LEVOMEPROMAZINE] had a CC50 at 48 h of 11.5 µM.

As to `C=CC(=O)Nc1cc(Nc2nccc(-c3cn(C)c4ccccc34)n2)c(OC)cc1N(C)CCN(C)C` [OSIMERTINIB], the midpoint of cytotoxicity, the CC50 at 48 h, lay at 3.09 µM.

In turn, `COc1ccc2nc3c(c(N)c2c1)CCCC3` had a half-maximal cytotoxic concentration (CC50) at 48 h of 47.9 µM.

On to `CCC(=O)c1ccc2c(c1)N(CCCN1CCN(CCO)CC1)c1ccccc1S2` [CARPHENAZINE], for which the CC50 at 48 h was 6.31 µM.

Take `C[C@H](Oc1cc(-c2cnn(C3CCNCC3)c2)cnc1N)c1c(Cl)ccc(F)c1Cl`: the CC50 at 48 h is 4.37 µM.

For `CC(=O)O[C@H]1CC[C@@]2(C)C(=CC[C@@H]3[C@@H]2CC[C@]2(C)C(c4cccnc4)=CC[C@@H]32)C1` [ABIRATERONE ACETATE], the CC50 at 48 h is 9.77 µM.

`CC(C)(C)c1ccc(CN2CCN(C(c3ccccc3)c3ccc(Cl)cc3)CC2)cc1` (stereo unspecified) [BUCLIZINE] showed a half-maximal cytotoxic concentration (CC50) at 48 h of 81.3 µM.

`CC(=O)c1ccc2c(c1)N(CCCN1CCC(CCO)CC1)c1ccccc1S2` [PIPERACETAZINE] gave a half-maximal cytotoxic concentration (CC50) at 48 h of 12 µM.

The subject of the next series is SARS-CoV-2. Description: microbe, parasite or virus in culture. The settings on record: Severe acute respiratory syndrome coronavirus 2, Vero C1008, 48 h.
In the case of `O=C1CC2(CCCC2)CC(=O)N1CCCCN1CCN(c2nsc3ccccc23)CC1` [TIOSPIRONE], the pIC50 was less than 4.00.

In turn, `c1ccc(C(c2ccccc2)N2CCN(CCCC3(c4ccccc4)OCCO3)CC2)cc1` [DOTARIZINE] had a negative-log IC50 (pIC50) of less than 4.70.

For the compound `CCN(CC)Cc1ccc2cc(COC(=O)Nc3ccc(C(=O)NO)cc3)ccc2c1` [GIVINOSTAT], the pIC50 was 4.98.

Compound `COc1ccc2c(c1)N(C[C@H](C)CN(C)C)c1ccccc1S2` [LEVOMEPROMAZINE] had a negative logarithm of the IC50 (pIC50) of 4.93.

`C=CC(=O)Nc1cc(Nc2nccc(-c3cn(C)c4ccccc34)n2)c(OC)cc1N(C)CCN(C)C` [OSIMERTINIB]: the negative logarithm of the IC50 (pIC50) is less than 4.00.

`COc1ccc2nc3c(c(N)c2c1)CCCC3` showed a pIC50 of roughly 4.94.

Take `CCC(=O)c1ccc2c(c1)N(CCCN1CCN(CCO)CC1)c1ccccc1S2` [CARPHENAZINE]: the negative logarithm of the IC50 (pIC50) was less than 4.00.

As for `C[C@H](Oc1cc(-c2cnn(C3CCNCC3)c2)cnc1N)c1c(Cl)ccc(F)c1Cl`, the pIC50 is 5.17.

Take `CC(=O)O[C@H]1CC[C@@]2(C)C(=CC[C@@H]3[C@@H]2CC[C@]2(C)C(c4cccnc4)=CC[C@@H]32)C1` [ABIRATERONE ACETATE]: the pIC50 is less than 4.00.

`CC(C)(C)c1ccc(CN2CCN(C(c3ccccc3)c3ccc(Cl)cc3)CC2)cc1` (stereo unspecified) [BUCLIZINE] gave a pIC50 of less than 4.00.

With `CC(=O)c1ccc2c(c1)N(CCCN1CCC(CCO)CC1)c1ccccc1S2` [PIPERACETAZINE], the pIC50 is 4.79.

The series is the same for the next values; noted with them: Severe acute respiratory syndrome coronavirus 2, Vero C1008, 48 h, read-out: pIC50 (converted).
For `O=C1CC2(CCCC2)CC(=O)N1CCCCN1CCN(c2nsc3ccccc23)CC1` [TIOSPIRONE], the IC50 was greater than 100 µM.

Consider `c1ccc(C(c2ccccc2)N2CCN(CCCC3(c4ccccc4)OCCO3)CC2)cc1` [DOTARIZINE], for which the IC50 is greater than 20 µM.

As to `CCN(CC)Cc1ccc2cc(COC(=O)Nc3ccc(C(=O)NO)cc3)ccc2c1` [GIVINOSTAT], the IC50 was 10.5 µM.

Regarding `COc1ccc2c(c1)N(C[C@H](C)CN(C)C)c1ccccc1S2` [LEVOMEPROMAZINE], the IC50 was 11.7 µM.

With `C=CC(=O)Nc1cc(Nc2nccc(-c3cn(C)c4ccccc34)n2)c(OC)cc1N(C)CCN(C)C` [OSIMERTINIB], the IC50 was greater than 100 µM.

Take `COc1ccc2nc3c(c(N)c2c1)CCCC3`: the IC50 was roughly 11.5 µM.

Consider `CCC(=O)c1ccc2c(c1)N(CCCN1CCN(CCO)CC1)c1ccccc1S2` [CARPHENAZINE], for which the IC50 was greater than 100 µM.

Regarding `C[C@H](Oc1cc(-c2cnn(C3CCNCC3)c2)cnc1N)c1c(Cl)ccc(F)c1Cl`, the IC50 was 6.76 µM.

With `CC(=O)O[C@H]1CC[C@@]2(C)C(=CC[C@@H]3[C@@H]2CC[C@]2(C)C(c4cccnc4)=CC[C@@H]32)C1` [ABIRATERONE ACETATE], the IC50 is greater than 100 µM.

For the compound `CC(C)(C)c1ccc(CN2CCN(C(c3ccccc3)c3ccc(Cl)cc3)CC2)cc1` (stereo unspecified) [BUCLIZINE], the IC50 was greater than 100 µM.

In the case of `CC(=O)c1ccc2c(c1)N(CCCN1CCC(CCO)CC1)c1ccccc1S2` [PIPERACETAZINE], the IC50 was 16.2 µM.

The pIC50 is the negative decadic logarithm of the IC50, by convention in mol/L. What is called CC50 is the concentration giving 50% cytotoxicity. Low values mean greater toxicity to the cells, high ones lower toxicity to the cells.
